This is an account of results in ChEMBL document CHEMBL2384932, “Radiosynthesis and evaluation of [11C]EMPA as a potential PET tracer for orexin 2 receptors” (Bioorg Med Chem Lett, 2013).

Data set [1] in a line: Drug uptake in baboon blood at 4.49 mCi by PET-MR imaging analysis. In kind it is ADME. Conditions: papio anubis; call rule not given here.
In data set [2] the test system is Brain. The data set is described as follows: Drug uptake in baboon brain at 4.49 mCi after 80 mins by PET-MR imaging analysis. In kind it is ADME. To be noted: papio anubis, in vivo.
Data set [3] relates to Liver. Briefly: Drug uptake in Sprague-Dawley rat liver at 1.0 to 1.2 mCi, iv after 90 mins by PET-CT scan in presence of non radiolabeled ligand EMPA. In kind it is ADME, organism-based. To be noted: in vivo, 1.5 h.
Data set [4] in a line: Lipophilicity, log D of the compound in phosphate buffer at ph 7.4. It counts as physicochemical.
Data set [5] is described as follows: Fraction unbound in baboon plasma after 10 mins. It counts as ADME, cell-free. To be noted: papio anubis.
Data set [6] has as its system Brain. The data set is described as follows: Drug uptake in Sprague-Dawley rat brain at 1.0 to 1.2 mCi, iv after 60 mins by PET-CT scan in presence of non radiolabeled ligand EMPA. In kind it is ADME, organism-based. Conditions: in vivo, 1 h.
For data set [7], the system named is Kidney. The data set is described as follows: Drug uptake in Sprague-Dawley rat kidney at 1.0 to 1.2 mCi, iv after 90 mins by PET-CT scan in presence of non radiolabeled ligand EMPA. It counts as ADME, organism-based. To be noted: in vivo, 1.5 h.
The nature of data set [8]: Ratio of drug level in brain to plasma of ip dosed mouse after 45 mins. It counts as ADME, organism-based. Conditions: read-out: BPR.
The target in data set [9] is T1, Orexin receptor type 2 (Rattus norvegicus) (UniProt P56719).
T1 sequence (whole entry): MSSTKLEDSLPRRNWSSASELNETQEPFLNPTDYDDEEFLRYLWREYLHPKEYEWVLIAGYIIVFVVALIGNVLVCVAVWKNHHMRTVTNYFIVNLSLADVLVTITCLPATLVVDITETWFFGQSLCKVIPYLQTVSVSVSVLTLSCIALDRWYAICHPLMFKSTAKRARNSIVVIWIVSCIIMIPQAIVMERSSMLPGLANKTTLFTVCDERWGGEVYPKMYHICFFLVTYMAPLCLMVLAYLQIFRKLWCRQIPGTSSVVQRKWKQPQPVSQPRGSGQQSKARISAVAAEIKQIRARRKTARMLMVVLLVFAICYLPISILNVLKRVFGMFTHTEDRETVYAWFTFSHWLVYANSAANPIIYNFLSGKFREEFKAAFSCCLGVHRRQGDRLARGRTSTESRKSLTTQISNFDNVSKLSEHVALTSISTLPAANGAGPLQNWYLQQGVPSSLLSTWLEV
The data set is described as follows: Binding affinity to rat brain OX2 receptor assessed per mg of protein.

A word on the logD: it is lipophilicity at a set pH, counting ionised and neutral species. Lower therefore signals lower lipophilicity. The fraction unbound is the share of the substance not bound to proteins or other matrix. As for `CCN(Cc1cccnc1)C(=O)CN(c1ccc(O[11CH3])nc1)S(=O)(=O)c1ccccc1C`, the Drug uptake entry was “Active” in data set [1]; under 0.01% in data set [2]; “Active” in data set [3]; under 0.1% in [6]; “Active” in [7]. In addition, the log distribution coefficient (logD) in data set [4] is 1.94. In data set [5], this compound returned a fraction unbound at 10 min of 0.113.
Regarding `[3H]c1ccc(CN(CC)C(=O)CN(c2ccc(OC([3H])([3H])[3H])nc2)S(=O)(=O)c2ccccc2C)cn1`, the Kp at 0.75 h in data set [8] was found to be 0.7.
Take `CCN(Cc1cccnc1)C(=O)CN(c1ccc(OC)nc1)S(=O)(=O)c1ccccc1C`: in data set [9], the Bmax worked out at 6.62 pmol.
